In patent US5863952A, “Enantiomers of 1-(3,4-dichlorobenzyl)-2-methylaminoindane” (SmithKline Beecham plc, priority 1995, dated 1999):

How the values were obtained:
[1] = system: histological damage in the CA1 region of the hippocampus after carotid artery occlusion; assay: Gerbil BCAO model; type: in vivo, Mongolian gerbils; details: 6 min carotid occlusion, 15 mg.kg-1 i.p. 30 minutes post-ischaemia then 5 mg.kg-1 b.i.d. for 3 days, histology on 5th day
Protocol: Male Mongolian gerbils weighing between 60-80 g were anaesthetised with halothane, placed on a heated mat and the carotid arteries occluded for 6 min. After reperfusion, the animals were sutured and placed in an incubator for 2 hours to maintain body temperature during the acute recovery phase. The animals were then caged separately and on the 5th day after the day of surgery they were euthanased and the brains removed for histological analysis. The dosing protocol in these experiments was 15 mg.kg^-1 30 minutes post-ischaemia then 5 mg.kg^-1 b.i.d. for 3 days. Injections were given via the i.p. route, and the vehicle was distilled water.

[2] = system: voltage gated Ca2+ channel currents (remaining, predominantly N type, calcium current) in superior cervical ganglion neurons; assay: Ca2+ current measurement, whole cell recording in cultured superior cervical ganglion neurons; type: cell-based; details: 5 μM drug coapplied with 10 μM Nimodipine for three minutes; 10 mM Ba2+ as charge carrier; holding potential -80 mV, test potential 0 or +10 mV; Hydrochloride
Protocol: Lett., 77, 55-60 (1987). Cells were plated onto laminin coated plastic tissue culture dishes and incubated at 37° C. until just prior to recording. Electrophysiological recordings were performed from 2 to 9 days after dissociation. The pipette (internal solution) contained in mM: CsCl, 130; HEPES, 10; EGTA, 10; MgCl2, 4; ATP, 2; buffered to pH 7.2 with CsOH. Cells were bathed in a normal Tyrodes solution before establishment of whole cell recording when the bathing solution was changed to one allowing isolation of Ca^2+ currents. The external solution for recording Ca^2+ channel currents contained in mM: BaCl2, 10; TEA-Cl, 130; glucose, 10; HEPES, 10; MgCl2, 1; buffered to pH 7.3 with TEA-OH. […] Whole cell currents were recorded using List EPC-7 amplifiers and stored, digitised for later analysis using PC based software similar to that described previously (Benham & Tsien, Journal of Physiology (1988), 404, 767-784). Peak voltage gated Ca^2+ channel currents of up to 10 nA were recorded using 10 mM Ba^2+ as charge carrier. […] The rundown rate was measured in control conditions and extrapolated through the time of drug application to derive a rundown corrected control value. Once a constant calcium current had been recorded for 4 successive pulses (1 minute) 10 μM Nimodipine, a dihydropyridine, was applied to the cell to block L type calcium current. […]

[3] = system: histological damage in the cerebral cortex after mid-cerebral artery occlusion; assay: Mouse MCAO model; type: in vivo, CD1 mice; details: 10 mg.kg-1 i.p. 30 minutes post-ischaemia then 10 mg.kg-1 b.i.d. for 3 days, histology on 4th day
Protocol: Male CD1 mice weighing 25-29 g were anaesthetised with tribromoethanol, placed on a heat-pad and maintained at 37° C. The mid-cerebral artery was cauterised and divided via the intra-cranial route. On completion of surgery the mice were placed in an incubator for 2 hours to maintain body temperature during the acute recovery phase. On the 4th day the mice were euthanased and the brains removed for histological analysis. The dosing protocol in these experiments was 10 mg.kg^-1 30 minutes post-ischaemia then 10 mg.kg^-1 b.i.d. for 3 days. Injections were given via the i.p. route, and the vehicle was distilled water.

Structure (SMILES)	attenuation of histological damage in the CA1 region of the hippocampus compared with ischaemic vehicle-treated animals [1]	inhibition of plateau Ca2+ current [2] [%]	attenuation of histological damage in the cerebral cortex compared with ischaemic vehicle-treated animals [3]
CN[C@H]1Cc2ccccc2[C@H]1Cc1ccc(Cl)c(Cl)c1.Cl (single isomer, unassigned) [Example 2, (-)cis-1-(3,4-Dichlorobenzyl)-2-methylaminoindane Hydrochloride]	significant attenuation of the histological damage	99	significant attenuation of the histological damage
CN[C@H]1Cc2ccccc2[C@H]1Cc1ccc(Cl)c(Cl)c1.Cl (single isomer, unassigned) [Example 1, (+)cis-1-(3,4-Dichlorobenzyl)-2-methylaminoindane Hydrochloride]	significant attenuation of the histological damage	95	significant attenuation of the histological damage
